From ChEMBL document CHEMBL4418497, “Compositions and methods relating to inhibiting serine hyrdoxymethyltransferase 2 activity” (2016)

What was measured:
[1] = molecular target: T1, Serine hydroxymethyltransferase, mitochondrial (Homo sapiens) (UniProt P34897); assay: Inhibition of His-tagged human recombinant SHMT2 expressed in Escherichia coli BLR(DE3) assessed as reduction in NADPH level using L-serine, THF and NADP+ at 6.5 or 26.5 uM incubated for 5 mins by SHMT2-MTHFD coupled reaction based fluorescence assay relative to control
T1 sequence (whole entry): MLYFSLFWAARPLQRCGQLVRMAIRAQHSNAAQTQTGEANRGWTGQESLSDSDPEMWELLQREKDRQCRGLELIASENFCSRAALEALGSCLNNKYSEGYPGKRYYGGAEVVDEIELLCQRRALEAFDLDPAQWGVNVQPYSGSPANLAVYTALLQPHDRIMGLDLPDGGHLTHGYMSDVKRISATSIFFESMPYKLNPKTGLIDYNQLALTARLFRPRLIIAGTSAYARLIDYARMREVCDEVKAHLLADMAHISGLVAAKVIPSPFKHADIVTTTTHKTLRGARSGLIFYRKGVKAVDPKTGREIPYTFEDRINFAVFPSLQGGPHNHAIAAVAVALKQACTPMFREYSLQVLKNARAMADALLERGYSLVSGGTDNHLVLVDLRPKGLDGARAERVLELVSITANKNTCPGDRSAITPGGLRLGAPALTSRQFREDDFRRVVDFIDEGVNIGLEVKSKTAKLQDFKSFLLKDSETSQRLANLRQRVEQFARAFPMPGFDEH

[2] = molecular target: T2, Serine hydroxymethyltransferase, mitochondrial (Homo sapiens, UniProt P34897); assay: Inhibition of His-tagged human recombinant SHMT2 expressed in Escherichia coli BLR(DE3) assessed as reduction in NADPH level using L-serine, THF and NADP+ incubated for 5 mins by SHMT2-MTHFD coupled reaction based fluorescence assay; settings: read-out: pIC50 (converted)
T2 sequence (P34897 whole entry): T1 sequence (whole entry)

SMILES | inhibition [1] | IC50 [2]
CN(C)c1cc2c(Nc3ccc4c(cnn4Cc4ccccc4)c3)ncnc2cn1 [GW282974X] | 77.5% | 2450 nM
CNCC[C@H](Oc1cccc2ccccc12)c1cccs1 [DULOXETINE] | 83.8% | 6920 nM
CCOC(=O)Nc1ccc(NCc2ccc(F)cc2)nc1N [FLUPIRTINE] | 86.1% | 933 nM
Cc1cc(/C=C/c2ccc3cc(N(C)C)ccc3[n+]2C)c(C)n1-c1ccccc1 | 88.2% | 2570 nM
COc1ccc(Cc2nccc3cc(OC)c(OC)cc23)cc1OC [PAPAVERINE] | 59.2% | 2690 nM
COc1cc(NC(C)CCCN)c2ncccc2c1 (stereo unspecified) [PRIMAQUINE] | 91.9% | 437 nM
COc1ccc2cc1Oc1ccc(cc1)C[C@H]1c3c(cc4c(c3Oc3cc5c(cc3OC)CCN(C)[C@@H]5C2)OCO4)CCN1C | 70.4% | 
CC(=O)[C@H]1CC[C@H]2[C@@H]3CCC4C[C@H](O)CC[C@]4(C)[C@H]3C[C@H](O)[C@]12C (stereo partly specified) | 71.6% | 
Cc1nc2c(OCc3ccccc3)cccn2c1CC#N | 77.9% | 
COc1ccc(OC)c(NC(=S)N2CCN(c3ncc(C(F)(F)F)cc3Cl)CC2)c1 | 60.2% | 
COC(=O)CC1C(C)(C)C(OC(C)=O)[C@@H]2[C@@H](OC(C)=O)[C@]34O[C@@H]2[C@]1(C)C3CC[C@]1(C)C4=CC(=O)O[C@H]1c1ccoc1 (stereo partly specified) | 52.4% | 
N#Cc1ccc(S(=O)(=O)Cc2cccc3ccccc23)cc1 | 54.5% | 
C=C(C)[C@H]1CC=C(C(=O)O)CC1 | 70% | 
CC(C)(C)C(=O)C(C#N)CNc1cccc2nsnc12 (stereo unspecified) | 69.6% | 
CC(=O)N[C@H]1CN2CC[C@H](O)[C@@H]2[C@@H](O)[C@@H]1O | 63.8% | 
